Reference: PubChem BioAssay AID1963830 (Molecular Pharmacology Branch, DTP, NCI, 2024)

System: 922993-354-T-J3-PDC complex spheroid viability
Assay: Anticancer human tumor 922993-354-T-J3-PDC patient-derived endometrial carcinoma cell line growth inhibition [POLQ]
Conditions: for IC50: curve of first compound; for viability, T/C: stronger effect = lower value
Summary of the method: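 Patient-derived tumour cells were co-cultured with HUVEC and mesenchymal stem cells as multicellular spheroids at 37 °C. They were treated with POLQ inhibitors (novobiocin, ART-558, RP6685) alone or combined with other agents. Top concentrations were at or near clinical Cmax (otherwise 10 microM; SN-38 at 1 microM), decreasing in half-log steps.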

[1] = second compound 0.0316 µM, first compound 0.0316 µM
[2] = second compound 0.0316 µM, first compound 0.1 µM
[3] = second compound 0.0316 µM, first compound 0.316 µM
[4] = second compound 0.0316 µM, first compound 1 µM
[5] = second compound 0.0316 µM, first compound 3.16 µM
[6] = second compound 0.0316 µM, first compound 10 µM
[7] = second compound 0.1 µM, first compound 0.0316 µM
[8] = second compound 0.1 µM, first compound 0.1 µM
[9] = second compound 0.1 µM, first compound 0.316 µM
[10] = second compound 0.1 µM, first compound 1 µM
[11] = second compound 0.1 µM, first compound 3.16 µM
[12] = second compound 0.1 µM, first compound 10 µM
[13] = second compound 0.316 µM, first compound 0.0316 µM
[14] = second compound 0.316 µM, first compound 0.1 µM
[15] = second compound 0.316 µM, first compound 0.316 µM
[16] = second compound 0.316 µM, first compound 1 µM
[17] = second compound 0.316 µM, first compound 3.16 µM
[18] = second compound 0.316 µM, first compound 10 µM
[19] = second compound 1 µM, first compound 0.0316 µM
[20] = second compound 1 µM, first compound 0.1 µM
[21] = second compound 1 µM, first compound 0.316 µM
[22] = second compound 1 µM, first compound 1 µM
[23] = second compound 1 µM, first compound 3.16 µM
[24] = second compound 1 µM, first compound 10 µM
[25] = second compound 3.16 µM, first compound 0.0316 µM
[26] = second compound 3.16 µM, first compound 0.1 µM
[27] = second compound 3.16 µM, first compound 0.316 µM
[28] = second compound 3.16 µM, first compound 1 µM
[29] = second compound 3.16 µM, first compound 3.16 µM
[30] = second compound 3.16 µM, first compound 10 µM
[31] = second compound 10 µM, first compound 0.0316 µM
[32] = second compound 10 µM, first compound 0.1 µM
[33] = second compound 10 µM, first compound 0.316 µM
[34] = second compound 10 µM, first compound 1 µM
[35] = second compound 10 µM, first compound 3.16 µM
[36] = second compound 10 µM, first compound 10 µM
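Note: spheroids exposed to the agents for one week.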
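Throughout, for viability, T/C: 100% = DMSO vehicle control wells.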

Structure (SMILES): O=C(Nc1ccc(O)c(NS(=O)(=O)c2ccc(F)cc2)c1)c1ccc(-c2ccccc2)cc1 + COC1C(OC(N)=O)C(O)C(Oc2ccc3c(O)c(NC(=O)c4ccc(O)c(CC=C(C)C)c4)c(=O)oc3c2C)OC1(C)C
- IC50 (second compound 0.0316 µM): > 10 µM
- IC50 (second compound 0.1 µM): > 10 µM
- IC50 (second compound 0.316 µM): > 10 µM
- IC50 (second compound 1 µM): > 10 µM
- IC50 (second compound 3.16 µM): > 10 µM
- IC50 (second compound 10 µM): > 10 µM
- viability, T/C [1]: 107%
- viability, T/C [2]: 91.7%
- viability, T/C [3]: 95.1%
- viability, T/C [4]: 98.3%
- viability, T/C [5]: 99.8%
- viability, T/C [6]: 95.6%
- viability, T/C [7]: 116%
- viability, T/C [8]: 97.1%
- viability, T/C [9]: 101%
- viability, T/C [10]: 99.3%
- viability, T/C [11]: 84%
- viability, T/C [12]: 102%
- viability, T/C [13]: 104%
- viability, T/C [14]: 100%
- viability, T/C [15]: 97.5%
- viability, T/C [16]: 101%
- viability, T/C [17]: 93.3%
- viability, T/C [18]: 101%
- viability, T/C [19]: 104%
- viability, T/C [20]: 97.4%
- viability, T/C [21]: 97.6%
- viability, T/C [22]: 96.4%
- viability, T/C [23]: 101%
- viability, T/C [24]: 94.7%
- viability, T/C [25]: 93.9%
- viability, T/C [26]: 92.2%
- viability, T/C [27]: 93.7%
- viability, T/C [28]: 90.8%
- viability, T/C [29]: 107%
- viability, T/C [30]: 94.2%
- viability, T/C [31]: 86.2%
- viability, T/C [32]: 81.1%
- viability, T/C [33]: 97.8%
- viability, T/C [34]: 73.7%
- viability, T/C [35]: 89.3%
- viability, T/C [36]: 96.5%

Structure (SMILES): C=CC(=O)N1CCN(c2nc(=O)n(-c3c(C)ccnc3C(C)C)c3nc(-c4c(O)cccc4F)c(F)cc23)C(C)C1 (stereo unspecified) + Cc1cccc(N(C)C(=O)C2C(O)CCN2c2nc(C)cc(C(F)(F)F)c2C#N)c1
- IC50 (second compound 0.0316 µM): > 10 µM
- IC50 (second compound 0.1 µM): > 10 µM
- IC50 (second compound 0.316 µM): > 10 µM
- IC50 (second compound 1 µM): > 10 µM
- IC50 (second compound 3.16 µM): > 10 µM
- IC50 (second compound 10 µM): > 10 µM
- viability, T/C [1]: 100%
- viability, T/C [2]: 105%
- viability, T/C [3]: 106%
- viability, T/C [4]: 113%
- viability, T/C [5]: 102%
- viability, T/C [6]: 93.2%
- viability, T/C [7]: 104%
- viability, T/C [8]: 103%
- viability, T/C [9]: 103%
- viability, T/C [10]: 108%
- viability, T/C [11]: 97.8%
- viability, T/C [12]: 102%
- viability, T/C [13]: 105%
- viability, T/C [14]: 99.2%
- viability, T/C [15]: 103%
- viability, T/C [16]: 104%
- viability, T/C [17]: 92.2%
- viability, T/C [18]: 96.8%
- viability, T/C [19]: 103%
- viability, T/C [20]: 95.2%
- viability, T/C [21]: 100%
- viability, T/C [22]: 102%
- viability, T/C [23]: 101%
- viability, T/C [24]: 105%
- viability, T/C [25]: 108%
- viability, T/C [26]: 103%
- viability, T/C [27]: 102%
- viability, T/C [28]: 98.9%
- viability, T/C [29]: 102%
- viability, T/C [30]: 106%
- viability, T/C [31]: 93.7%
- viability, T/C [32]: 101%
- viability, T/C [33]: 97.9%
- viability, T/C [34]: 99.8%
- viability, T/C [35]: 111%
- viability, T/C [36]: 112%

Structure (SMILES): CC1COCCN1c1cc(C2(S(C)(=N)=O)CC2)nc(-c2ccnc3[nH]ccc23)n1 (stereo unspecified) + Nc1ccc(C#CCN(C(=O)Cc2ncc(C(F)(F)F)cc2C(F)(F)F)c2ccc(F)cc2)nn1
- IC50 (second compound 0.0316 µM): > 10 µM
- IC50 (second compound 0.1 µM): > 10 µM
- IC50 (second compound 0.316 µM): > 10 µM
- IC50 (second compound 1 µM): > 10 µM
- IC50 (second compound 3.16 µM): > 10 µM
- IC50 (second compound 10 µM): 6.37 µM
- viability, T/C [1]: 104%
- viability, T/C [2]: 106%
- viability, T/C [3]: 98.7%
- viability, T/C [4]: 106%
- viability, T/C [5]: 95.5%
- viability, T/C [6]: 88.5%
- viability, T/C [7]: 107%
- viability, T/C [8]: 105%
- viability, T/C [9]: 101%
- viability, T/C [10]: 102%
- viability, T/C [11]: 105%
- viability, T/C [12]: 89.2%
- viability, T/C [13]: 105%
- viability, T/C [14]: 101%
- viability, T/C [15]: 101%
- viability, T/C [16]: 97.2%
- viability, T/C [17]: 105%
- viability, T/C [18]: 91.6%
- viability, T/C [19]: 102%
- viability, T/C [20]: 99%
- viability, T/C [21]: 102%
- viability, T/C [22]: 98.9%
- viability, T/C [23]: 101%
- viability, T/C [24]: 89.6%
- viability, T/C [25]: 103%
- viability, T/C [26]: 95%
- viability, T/C [27]: 102%
- viability, T/C [28]: 95.5%
- viability, T/C [29]: 101%
- viability, T/C [30]: 85.3%
- viability, T/C [31]: 98.3%
- viability, T/C [32]: 96.5%
- viability, T/C [33]: 98.7%
- viability, T/C [34]: 92.9%
- viability, T/C [35]: 81.6%
- viability, T/C [36]: 29.9%
